Source: patent US20240279176A1, “SUBSTITUTED TRICYCLIC HETEROCYCLIC COMPOUNDS AS METALLO-BETA-LACTAMASE INHIBITORS” (priority 2021, published 2024)
Where two headings read alike, the source gives them in different places.

Assays:
[1] = test system: Klebsiella pneumoniae ATCC BAA-2146; assay: Checkerboard synergy assay in combination with Imipenem; type: cell-based; settings: K. pneumoniae ATCC BAA-2146; for Fold reduction in Imipenem MIC in the presence of compounds (μg/mL) 4: compound at 4 μg/mL; for Fold reduction in Imipenem MIC in the presence of compounds (μg/mL) 8: compound at 8 μg/mL; for Fold reduction in Imipenem MIC in the presence of compounds (μg/mL) 16: compound at 16 μg/mL; for Fold reduction in Imipenem MIC in the presence of compounds (μg/mL) 32: compound at 32 μg/mL
Source text: (§1) The strain included in the study was Klebsiella pneumoniae ATCC BAA-2146 (Himedia®, India) with presence of New Delhi metallo-β-lactamase (NDM-1) gene. The quality control reference strains Escherichia coli ATCC 25922 and Pseudomonas aeruginosa ATCC 27853 were procured from Himedia®, India.
(§2) The fold modulation activity of test compounds, in combination with Imipenem or Meropenem, was checked against Klebsiella pneumoniae ATCC BAA-2146 strain by the broth-microdilution checkerboard synergy assay. The plates contained 5×10^5 CFU/mL bacterial inocula and 2-fold serial dilutions of the antibiotics (128-2 μg/mL) as well as test compounds (32-4 μg/mL) in a total volume of 200 μL of CA-MHB. Dimethyl sulfoxide (DMSO, ≤2.5%) was included as vehicle control. Following 16-18 h of incubation at 37° C., the MICs of antibiotics as well as drug combinations were visually inspected.

[2] = test system: Klebsiella pneumoniae ATCC BAA-2146; assay: Checkerboard synergy assay in combination with Meropenem; type: cell-based; settings: K. pneumoniae ATCC BAA-2146; for Fold reduction in meropenem MIC in the presence of compounds (μg/mL) 4: compound at 4 μg/mL; for Fold reduction in meropenem MIC in the presence of compounds (μg/mL) 8: compound at 8 μg/mL; for Fold reduction in meropenem MIC in the presence of compounds (μg/mL) 16: compound at 16 μg/mL; for Fold reduction in meropenem MIC in the presence of compounds (μg/mL) 32: compound at 32 μg/mL
Source text: as §1, §2

[3] = test system: Klebsiella pneumoniae ATCC BAA-2146; assay: Minimum inhibitory concentration (MIC), broth-microdilution (CLSI); type: cell-based; settings: ATCCBAA2146, compound alone, K. pneumoniae ATCC BAA-2146, read-out: Intrinsic MIC
Source text: as §1
MIC values were identified through broth-microdilution in sterilized 96-well polystyrene flat-bottom microtitre plates (Cole-Parmer®) according to the guideline of the Clinical and Laboratory Standards Institute (CLSI) (CLSI; Methods for dilution antimicrobial susceptibility tests for bacteria that grow aerobically; Clinical Laboratory Standards Institute, M07-A09, 2012). This method involves the use of BBL™ Cation-adjusted Mueller-Hinton II Broth (CA-MHB; BD) and the strain (Klebsiella pneumoniae ATCC BAA-2146) concentration was adjusted to 5×10^5 CFU/mL. After 16-18 h of incubation at various concentrations of Imipenem, Meropenem (Alfa Aesar), or test compounds at 37° C., MIC was defined as the lowest concentration of antibiotic or test compound with no visible growth.

NDM-1 = NDM-1 (Klebsiella pneumoniae, UniProt C7C422); assay: Enzyme activity: IC50 in fluorescence assay with cephalosporin substrate FC5; type: biochemical; settings: 50 pM NDM-1, 1.5 μM FC5, 10 min pre-incubation
Sequence of NDM-1 (C7C422 29-270, looked up): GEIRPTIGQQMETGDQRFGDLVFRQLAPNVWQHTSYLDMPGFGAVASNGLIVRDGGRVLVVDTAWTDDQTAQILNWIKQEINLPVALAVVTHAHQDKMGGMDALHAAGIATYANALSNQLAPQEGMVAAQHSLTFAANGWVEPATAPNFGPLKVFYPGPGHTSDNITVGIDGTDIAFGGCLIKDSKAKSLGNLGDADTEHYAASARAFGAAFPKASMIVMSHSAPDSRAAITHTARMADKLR
Method: (§3) The Class B beta-lactamases activities were measured in the presence of the test inhibitors in a fluorescence assay against an in-house synthesized fluorescent cephalosporin substrate FC5 (Berkel, et. al. J. Med. Chem. 2013, 56(17), 6945). The enzymes (NDM-1, IMP-1) and the substrate were diluted in 20 mM HEPES, pH 7.4, supplemented with 300 mM NaCl and 10 μM ZnSO4. In the assay, the final concentration of enzyme was 50 pM, and 100 pM for NDM-1, and IMP-1 respectively, and the final concentration of FC5 was 1.5 μM for NDM-1 and 10 μM for IMP-1. The test inhibitors/compounds were dissolved in dimethylsulfoxide (DMSO) and diluted in the assay with assay buffer (20 mM HEPES, pH 7.4, supplemented with 5% DMSO, 300 mM NaCl and 10 μM ZnSO4), resulting in a final concentration range of 0.008 μM to 25 μM. The assays were performed in 96-well microplate (flat bottom, black). The test inhibitors were incubated with the MBL enzyme for 10 min at room temperature, followed by addition the substrate and the fluorescence was recorded immediately (λex 380 nm, λem 460 nm) on a microplate reader. Using the initial velocity data plotted against the inhibitor concentration, the half-maximal inhibitory concentrations were calculated by an IC50 curve-fitting model in GraphPad Prism 9 software.

IMP-1 = IMP-1 (Serratia marcescens, UniProt P52699); assay: as above; type: biochemical; settings: 100 pM IMP-1, 10 μM FC5, 10 min pre-incubation
Sequence of IMP-1 (P52699 19-246, looked up, species assumed): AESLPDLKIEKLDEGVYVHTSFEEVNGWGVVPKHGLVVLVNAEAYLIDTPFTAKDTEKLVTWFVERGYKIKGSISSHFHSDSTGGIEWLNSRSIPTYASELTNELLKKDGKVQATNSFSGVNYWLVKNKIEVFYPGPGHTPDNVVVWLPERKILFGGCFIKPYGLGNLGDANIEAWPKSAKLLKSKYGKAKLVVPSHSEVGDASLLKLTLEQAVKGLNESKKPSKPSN
Method: as §3

Compound | Fold reduction in Imipenem MIC in the presence of compounds (μg/mL) 4 [1] [fold] | Fold reduction in Imipenem MIC in the presence of compounds (μg/mL) 8 [1] [fold] | Fold reduction in Imipenem MIC in the presence of compounds (μg/mL) 16 [1] [fold] | Fold reduction in Imipenem MIC in the presence of compounds (μg/mL) 32 [1] [fold] | Fold reduction in meropenem MIC in the presence of compounds (μg/mL) 4 [2] [fold] | Fold reduction in meropenem MIC in the presence of compounds (μg/mL) 8 [2] [fold] | Fold reduction in meropenem MIC in the presence of compounds (μg/mL) 16 [2] [fold] | Fold reduction in meropenem MIC in the presence of compounds (μg/mL) 32 [2] [fold] | MIC ([3]; Imipenem series) [µg/mL] | MIC ([3]; meropenem series) [µg/mL] | IC50 (NDM-1) [µM] | IC50 (IMP-1) [µM]
O=C(O)c1[nH]c2c(c1-c1cccc(F)c1F)CCc1ccccc1-2 [Example 47, 3-(2,3-difluorophenyl)-4,5-dihydro-1H-benzo[g]indole-2-carboxylic Acid] | 2 | 4 | 4 | 8 | 2 | 4 | 4 | 4 | > 128 | > 128 | 0.323 | 3.3
Cc1cc(C)cc(-c2c(C(=O)O)[nH]c3c2CCc2ccccc2-3)c1 [Example 48, 3-(3,5-dimethylphenyl)-4,5-dihydro-1H-benzo[g]indole-2-carboxylic Acid] | 4 | 4 | 8 | 8 | 4 | 4 | 4 | 8 | > 128 | > 128 | 0.252 | 0.695
O=C(O)c1[nH]c2c(c1-c1cccc(Cl)c1Cl)CCc1ccccc1-2 [Example 50, 3-(2,3-dichlorophenyl)-4,5-dihydro-1H-benzo[g]indole-2-carboxylic Acid] | 2 | 2 | 4 | 4 |  | 2 | 2 | 4 | > 128 | > 128 | 0.211 | 25
O=C(O)c1[nH]c2c(c1-c1ccncc1)CCc1ccccc1-2 [Example 51, 3-(pyridin-4-yl)-4,5-dihydro-1H-benzo[g]indole-2-carboxylic Acid] | 4 | 4 | 8 | 8 | 4 | 4 | 8 | 8 | > 128 | > 128 | 0.604 | 11.1
O=C(O)c1[nH]c2c(c1-c1cc(F)cc(F)c1)CCc1ccccc1-2 [Example 52, 3-(3,5-difluorophenyl)-4,5-dihydro-1H-benzo[g]indole-2-carboxylic Acid] | 4 | 4 | 8 | 8 |  | 2 | 2 | 4 | > 128 | > 128 | 0.158 | 4.87
O=C(O)c1[nH]c2c(c1-c1cncc(F)c1)CCc1ccccc1-2 [Example 53, 3-(5-fluoropyridin-3-yl)-4,5-dihydro-1H-benzo[g]indole-2-carboxylic Acid] | 4 | 4 | 4 | 8 |  | 2 | 4 | 4 | > 128 | > 128 | 0.334 | 3.74
O=C(O)c1[nH]c2c(c1-c1cncc(Cl)c1)CCc1ccccc1-2 [Example 54, 3-(5-chloropyridin-3-yl)-4,5-dihydro-1H-benzo[g]indole-2-carboxylic Acid] | 4 | 4 | 8 | 8 | 4 | 4 | 8 | 8 | > 128 | > 128 | 0.075 | 1.36
COc1cc(F)ccc1-c1c(C(=O)O)[nH]c2c1CCc1ccccc1-2 [Example 56, 3-(4-fluoro-2-methoxyphenyl)-4,5-dihydro-1H-benzo[g]indole-2-carboxylic Acid] |  |  |  | 2 | 4 | 4 | 4 | 8 | > 128 | > 128 | 0.143 | 2.67
COc1cc(Cl)cc(-c2c(C(=O)O)[nH]c3c2CCc2ccccc2-3)c1 [Example 59, 3-(3-chloro-5-methoxyphenyl)-4,5-dihydro-1H-benzo[g]indole-2-carboxylic Acid] | 4 | 4 | 8 | 16 | 4 | 8 | 8 | 16 | > 128 | > 128 | 0.015 | 0.552
COc1cc(OC)cc(-c2c(C(=O)O)[nH]c3c2CCc2ccccc2-3)c1 [Example 61, 3-(3,5-dimethoxyphenyl)-4,5-dihydro-1H-benzo[g]indole-2-carboxylic Acid] | 4 | 8 | 8 | 8 | 4 | 4 | 8 | 8 | > 128 | > 128 | 0.049 | 0.495
